Results as given in paper PMC7180948, “New Insights into 4-Anilinoquinazolines as Inhibitors of Cardiac Troponin I–Interacting Kinase (TNNi3K)” (Molecules, 2020).

Tests used:
Assay in all cases: biochemical
Parameters in all cases: KINOMEscan competition binding panel (Eurofins DiscoverX), single concentration, percent inhibition
Details in all cases: read-out: 15 at 1 µM % inhibition
[1] = molecular target: CDK5 (Homo sapiens, UniProt Q00535)
Outline: (§1)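 A single 1 µM concentration of each compound is screened across upwards of 400 human kinases using the KINOMEscan format.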

[2] = molecular target: T1, CTK (Homo sapiens, UniProt P42679)
T1 construct: gene MATK
Outline: as §1

[3] = molecular target: T2, DCAMKL1 (Homo sapiens, UniProt O15075)
T2 construct: gene DCLK1
Outline: as §1

[4] = molecular target: EGFR(E746-A750del) (Homo sapiens, UniProt P00533, DEL746-750)
Chain of EGFR(E746-A750del) (P00533 with tags, fused parts or gaps DEL746-750): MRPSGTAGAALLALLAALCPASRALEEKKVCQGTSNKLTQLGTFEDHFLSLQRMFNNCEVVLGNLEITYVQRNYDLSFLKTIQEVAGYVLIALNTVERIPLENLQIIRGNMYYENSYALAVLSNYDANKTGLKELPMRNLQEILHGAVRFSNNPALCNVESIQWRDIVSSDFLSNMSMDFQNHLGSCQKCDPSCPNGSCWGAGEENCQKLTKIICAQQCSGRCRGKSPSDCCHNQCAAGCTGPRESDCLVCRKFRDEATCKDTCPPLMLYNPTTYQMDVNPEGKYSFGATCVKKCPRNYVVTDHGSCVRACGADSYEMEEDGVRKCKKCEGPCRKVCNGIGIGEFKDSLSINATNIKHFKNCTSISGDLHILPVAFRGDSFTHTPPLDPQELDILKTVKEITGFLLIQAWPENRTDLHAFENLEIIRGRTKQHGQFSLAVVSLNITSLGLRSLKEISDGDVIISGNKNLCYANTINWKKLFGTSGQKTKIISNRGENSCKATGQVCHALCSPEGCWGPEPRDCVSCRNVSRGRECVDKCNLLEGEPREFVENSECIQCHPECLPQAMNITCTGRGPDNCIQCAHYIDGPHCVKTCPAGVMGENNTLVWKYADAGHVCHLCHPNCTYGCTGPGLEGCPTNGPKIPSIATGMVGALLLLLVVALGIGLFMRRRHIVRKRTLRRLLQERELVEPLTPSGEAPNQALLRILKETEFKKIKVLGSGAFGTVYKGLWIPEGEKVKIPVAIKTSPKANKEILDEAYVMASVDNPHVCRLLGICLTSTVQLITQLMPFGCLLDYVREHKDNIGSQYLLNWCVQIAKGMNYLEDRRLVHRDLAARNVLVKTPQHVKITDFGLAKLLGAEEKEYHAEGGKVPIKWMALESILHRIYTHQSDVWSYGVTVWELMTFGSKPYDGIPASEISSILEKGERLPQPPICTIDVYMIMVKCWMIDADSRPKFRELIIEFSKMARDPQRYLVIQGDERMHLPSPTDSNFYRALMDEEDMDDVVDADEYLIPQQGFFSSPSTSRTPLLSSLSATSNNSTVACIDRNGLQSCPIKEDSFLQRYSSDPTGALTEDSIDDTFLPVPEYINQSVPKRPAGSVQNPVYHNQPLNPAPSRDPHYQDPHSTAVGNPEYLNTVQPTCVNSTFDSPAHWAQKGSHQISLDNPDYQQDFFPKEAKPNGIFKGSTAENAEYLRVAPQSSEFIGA
Outline: as §1

[5] = molecular target: EPHA1 (Homo sapiens, UniProt P21709)
Chain of EPHA1 (P21709 whole entry): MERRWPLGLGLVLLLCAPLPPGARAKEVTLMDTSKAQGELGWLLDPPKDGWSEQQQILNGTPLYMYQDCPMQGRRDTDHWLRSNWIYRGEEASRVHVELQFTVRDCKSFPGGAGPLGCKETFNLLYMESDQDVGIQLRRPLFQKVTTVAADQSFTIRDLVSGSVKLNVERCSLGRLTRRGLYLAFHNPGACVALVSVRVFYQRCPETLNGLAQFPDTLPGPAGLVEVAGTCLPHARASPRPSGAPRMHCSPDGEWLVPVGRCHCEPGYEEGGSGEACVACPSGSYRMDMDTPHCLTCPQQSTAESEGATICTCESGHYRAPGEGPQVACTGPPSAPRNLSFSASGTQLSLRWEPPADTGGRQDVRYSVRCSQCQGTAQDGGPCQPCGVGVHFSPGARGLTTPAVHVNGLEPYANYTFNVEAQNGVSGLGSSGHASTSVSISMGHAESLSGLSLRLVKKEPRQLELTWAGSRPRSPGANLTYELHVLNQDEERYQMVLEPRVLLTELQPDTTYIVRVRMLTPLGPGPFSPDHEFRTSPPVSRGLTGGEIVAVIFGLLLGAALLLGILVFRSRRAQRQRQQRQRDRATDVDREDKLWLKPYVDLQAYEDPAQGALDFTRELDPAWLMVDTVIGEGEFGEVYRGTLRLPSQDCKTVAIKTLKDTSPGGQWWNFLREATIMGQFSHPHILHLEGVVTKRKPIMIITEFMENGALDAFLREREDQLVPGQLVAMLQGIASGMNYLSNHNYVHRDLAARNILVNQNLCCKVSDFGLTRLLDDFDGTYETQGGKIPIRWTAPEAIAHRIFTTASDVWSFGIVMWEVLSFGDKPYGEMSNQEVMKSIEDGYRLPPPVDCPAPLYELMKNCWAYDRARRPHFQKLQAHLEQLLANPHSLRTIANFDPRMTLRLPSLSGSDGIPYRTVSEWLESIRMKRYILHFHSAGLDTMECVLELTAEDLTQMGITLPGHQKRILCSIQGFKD
Outline: as §1

[6] = molecular target: EPHB6 (Homo sapiens, UniProt O15197)
Outline: as §1

[7] = molecular target: ERN1 (Homo sapiens, UniProt O75460)
Outline: as §1

[8] = molecular target: T3, FAK (Homo sapiens, UniProt Q05397)
T3 construct: gene PTK2
Outline: as §1

[9] = molecular target: FER (Homo sapiens, UniProt P16591)
Outline: as §1

[10] = molecular target: T4, JAK2(JH1domain-catalytic) (Homo sapiens, UniProt O60674)
T4 construct: JH1domain-catalytic
Outline: as §1

[11] = molecular target: T5, NDR1 (Homo sapiens, UniProt Q15208)
T5 construct: gene STK38
Outline: as §1

[12] = molecular target: NEK3 (Homo sapiens, UniProt P51956)
Chain of NEK3 (P51956 whole entry): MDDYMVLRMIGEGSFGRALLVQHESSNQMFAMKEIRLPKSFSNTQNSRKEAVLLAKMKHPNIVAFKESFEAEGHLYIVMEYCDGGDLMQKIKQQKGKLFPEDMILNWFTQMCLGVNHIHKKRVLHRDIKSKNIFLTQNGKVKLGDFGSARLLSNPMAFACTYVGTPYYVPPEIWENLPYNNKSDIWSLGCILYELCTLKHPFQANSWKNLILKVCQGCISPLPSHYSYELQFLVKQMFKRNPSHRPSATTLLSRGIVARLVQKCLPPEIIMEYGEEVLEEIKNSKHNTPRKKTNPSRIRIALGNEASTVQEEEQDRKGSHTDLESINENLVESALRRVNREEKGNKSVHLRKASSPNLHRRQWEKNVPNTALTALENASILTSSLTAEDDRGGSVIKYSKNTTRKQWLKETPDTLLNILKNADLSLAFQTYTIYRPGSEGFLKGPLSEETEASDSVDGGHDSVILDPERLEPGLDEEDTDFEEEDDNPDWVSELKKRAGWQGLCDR
Outline: as §1

[13] = molecular target: NEK7 (Homo sapiens, UniProt Q8TDX7)
Outline: as §1

[14] = molecular target: PDGFRA (Homo sapiens, UniProt P16234)
Chain of PDGFRA (P16234 whole entry): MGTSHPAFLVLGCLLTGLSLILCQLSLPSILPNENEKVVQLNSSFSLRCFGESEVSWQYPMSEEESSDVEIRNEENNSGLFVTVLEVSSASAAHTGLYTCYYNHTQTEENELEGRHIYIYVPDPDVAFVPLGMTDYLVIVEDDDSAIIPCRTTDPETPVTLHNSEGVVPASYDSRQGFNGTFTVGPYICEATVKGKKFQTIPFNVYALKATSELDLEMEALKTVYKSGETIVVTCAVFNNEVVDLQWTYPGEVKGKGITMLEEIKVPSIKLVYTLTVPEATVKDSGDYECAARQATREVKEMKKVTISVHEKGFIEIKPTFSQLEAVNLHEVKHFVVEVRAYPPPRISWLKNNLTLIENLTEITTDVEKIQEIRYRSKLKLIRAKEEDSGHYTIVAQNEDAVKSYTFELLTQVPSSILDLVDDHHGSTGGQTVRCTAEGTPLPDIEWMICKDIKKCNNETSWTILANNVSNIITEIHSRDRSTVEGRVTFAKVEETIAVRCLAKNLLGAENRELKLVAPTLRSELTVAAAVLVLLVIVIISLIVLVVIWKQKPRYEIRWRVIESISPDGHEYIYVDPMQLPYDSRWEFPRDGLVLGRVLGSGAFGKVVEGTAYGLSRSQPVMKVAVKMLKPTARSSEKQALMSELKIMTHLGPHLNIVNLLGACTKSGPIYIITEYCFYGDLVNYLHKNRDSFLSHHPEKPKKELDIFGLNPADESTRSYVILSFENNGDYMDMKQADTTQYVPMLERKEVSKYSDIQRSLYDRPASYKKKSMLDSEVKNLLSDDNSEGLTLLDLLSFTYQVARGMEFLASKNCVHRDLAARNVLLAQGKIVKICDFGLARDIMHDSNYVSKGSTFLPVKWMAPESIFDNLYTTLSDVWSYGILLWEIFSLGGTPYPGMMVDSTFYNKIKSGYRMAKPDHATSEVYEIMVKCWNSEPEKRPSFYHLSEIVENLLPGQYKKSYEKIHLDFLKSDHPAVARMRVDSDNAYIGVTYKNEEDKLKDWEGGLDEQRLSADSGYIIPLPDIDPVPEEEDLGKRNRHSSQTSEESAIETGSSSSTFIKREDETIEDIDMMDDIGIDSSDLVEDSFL
Outline: as §1

[15] = molecular target: T6, PFTAIRE2 (Homo sapiens, UniProt Q96Q40)
T6 construct: gene CDK15
Outline: as §1

[16] = molecular target: PLK1 (Homo sapiens, UniProt P53350)
Chain of PLK1 (P53350 whole entry): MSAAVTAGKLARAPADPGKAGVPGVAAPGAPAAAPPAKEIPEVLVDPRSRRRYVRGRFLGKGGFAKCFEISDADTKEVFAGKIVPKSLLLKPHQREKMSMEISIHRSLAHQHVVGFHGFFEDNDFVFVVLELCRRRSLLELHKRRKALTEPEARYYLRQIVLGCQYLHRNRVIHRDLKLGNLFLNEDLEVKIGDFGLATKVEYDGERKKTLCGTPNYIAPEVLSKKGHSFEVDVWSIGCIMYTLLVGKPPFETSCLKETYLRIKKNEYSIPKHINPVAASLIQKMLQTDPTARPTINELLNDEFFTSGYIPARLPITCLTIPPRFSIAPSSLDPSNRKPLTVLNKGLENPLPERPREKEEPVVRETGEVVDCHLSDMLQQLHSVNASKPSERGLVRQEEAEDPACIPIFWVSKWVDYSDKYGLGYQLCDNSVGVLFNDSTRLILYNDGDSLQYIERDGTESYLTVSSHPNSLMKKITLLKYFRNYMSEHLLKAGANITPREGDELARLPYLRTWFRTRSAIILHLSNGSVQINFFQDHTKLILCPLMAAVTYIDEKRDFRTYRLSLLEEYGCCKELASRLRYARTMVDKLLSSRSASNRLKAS
Outline: as §1

[17] = molecular target: PLK4 (Homo sapiens, UniProt O00444)
Outline: as §1

[18] = molecular target: PRKD3 (Homo sapiens, UniProt O94806)
Outline: as §1

[19] = molecular target: PRKG2 (Homo sapiens, UniProt Q13237)
Outline: as §1

[20] = molecular target: T7, RSK1(Kin.Dom.2-C-terminal) (Homo sapiens, UniProt Q15418)
T7 construct: gene RPS6KA1; Kin.Dom.2-C-terminal
Outline: as §1

[21] = molecular target: T8, SIK (Homo sapiens, UniProt P57059)
T8 construct: gene SIK1
Outline: as §1

[22] = molecular target: T9, YES (Homo sapiens, UniProt P07947)
T9 construct: gene YES1
T9 sequence (P07947 whole entry): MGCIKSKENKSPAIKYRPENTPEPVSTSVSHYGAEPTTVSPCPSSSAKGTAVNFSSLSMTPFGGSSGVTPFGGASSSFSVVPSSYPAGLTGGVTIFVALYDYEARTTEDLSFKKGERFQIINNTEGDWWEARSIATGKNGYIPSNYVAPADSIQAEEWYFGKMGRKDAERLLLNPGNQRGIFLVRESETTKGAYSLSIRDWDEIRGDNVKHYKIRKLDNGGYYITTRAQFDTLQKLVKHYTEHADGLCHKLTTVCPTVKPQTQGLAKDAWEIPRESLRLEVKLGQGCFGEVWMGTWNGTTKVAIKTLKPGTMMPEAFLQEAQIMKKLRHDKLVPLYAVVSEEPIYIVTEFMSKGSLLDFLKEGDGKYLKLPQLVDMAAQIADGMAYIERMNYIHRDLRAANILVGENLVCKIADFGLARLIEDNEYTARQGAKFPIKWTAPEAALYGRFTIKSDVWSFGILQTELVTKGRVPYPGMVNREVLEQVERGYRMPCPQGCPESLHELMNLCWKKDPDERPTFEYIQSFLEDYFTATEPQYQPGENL
Outline: as §1

[23] = molecular target: ZAP70 (Homo sapiens, UniProt P43403)
Outline: as §1

[24] = molecular target: T10, p38-alpha (Homo sapiens, UniProt Q16539)
T10 construct: gene MAPK14
Outline: as §1

`CNS(=O)(=O)c1ccc(N(C)C)c(Nc2nc(C)nc3cc(OC)c(OC)cc23)c1` [compound 15, 3-((6,7-dimethoxy-2-methylquinazolin-4-yl)amino)-4-(dimethylamino)-N-methylbenzenesulfonamide] showed an inhibition at 1 µM [1] of 3%, an inhibition at 1 µM [2] of 0% and an inhibition at 1 µM [3] of 9%. The inhibition at 1 µM [4] was 31%, the inhibition at 1 µM [5] was 0% and the inhibition at 1 µM [6] was 0%. It also gave an inhibition at 1 µM [7] of 3%, an inhibition at 1 µM [8] of 0% and an inhibition at 1 µM [9] of 0%. The inhibition at 1 µM [10] was 0%, the inhibition at 1 µM [11] was 13% and the inhibition at 1 µM [12] was 0%. For the same compound, the inhibition at 1 µM [13] was 2%, the inhibition at 1 µM [14] was 10% and the inhibition at 1 µM [15] was 5%. The inhibition at 1 µM [16] was 0%, the inhibition at 1 µM [17] was 23% and the inhibition at 1 µM [18] was 0%. It also gave an inhibition at 1 µM [19] of 21%, an inhibition at 1 µM [20] of 5% and an inhibition at 1 µM [21] of 13%. For the same compound, the inhibition at 1 µM [22] was 0%, the inhibition at 1 µM [23] was 0% and the inhibition at 1 µM [24] was 0%.
